Values joined by “and” are separate entries in the source; they are usually repeats but may differ in a detail not shown here. Equal entries are not always repeated.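 Results reflect a 48-hour exposure of cells in 96-well plates to compound at five concentrations. Here, GI50 denotes the concentration required for 50% inhibition of growth. Definition used: TGI = concentration required for complete inhibition of growth.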
Columns and labels:
Test in all cases: NCI tumour cell line growth inhibition, 48 h
UACC-257 melanoma = system: UACC-257 melanoma
CAKI-1 renal = system: CAKI-1 renal
SNB-19 CNS = system: SNB-19 CNS
K-562 leukemia = system: K-562 leukemia
LOX IMVI melanoma = system: LOX IMVI melanoma
RXF 393 renal = system: RXF 393 renal
KM12 colon = system: KM12 colon
HT29 colon = system: HT29 colon
OVCAR-3 ovarian = system: OVCAR-3 ovarian
NCI-H23 lung = system: NCI-H23 lung

## O=C1CC(c2cccc(Cl)c2)n2cccc21 (stereo not drawn)
UACC-257 melanoma
  TGI: > 100 µM
CAKI-1 renal
  TGI: > 100 µM
SNB-19 CNS
  TGI: > 100 µM
K-562 leukemia
  TGI: > 100 µM
LOX IMVI melanoma
  TGI: > 100 µM
RXF 393 renal
  TGI: > 100 µM
KM12 colon
  TGI: > 100 µM
HT29 colon
  TGI: > 100 µM
OVCAR-3 ovarian
  TGI: > 100 µM
NCI-H23 lung
  TGI: > 100 µM

## Cc1ccc2c3c1O[C@H]1c4nc5ccccc5cc4C[C@@]4(O)[C@@H](C2)N(CC2CC2)CC[C@]314
UACC-257 melanoma
  TGI: 41.1 µM
CAKI-1 renal
  TGI: 32.7 µM
SNB-19 CNS
  TGI: > 100 µM
K-562 leukemia
  TGI: 23 µM
LOX IMVI melanoma
  TGI: 17 µM
RXF 393 renal
  TGI: 21.1 µM
KM12 colon
  TGI: 35.6 µM
HT29 colon
  TGI: 16.7 µM
OVCAR-3 ovarian
  TGI: 25.3 µM
NCI-H23 lung
  TGI: 67.7 µM

## CN(C)c1ccc(/C=C2\N=C(c3ccccc3)N(c3nc4c(Cl)cc(Cl)cc4s3)C2=O)cc1
UACC-257 melanoma
  TGI: > 100 µM
CAKI-1 renal
  TGI: > 100 µM
SNB-19 CNS
  TGI: > 100 µM
K-562 leukemia
  TGI: > 100 µM
LOX IMVI melanoma
  TGI: > 100 µM
KM12 colon
  TGI: > 100 µM
HT29 colon
  TGI: > 100 µM
OVCAR-3 ovarian
  TGI: > 100 µM

## CSc1n[n+](C)cc(N)c1N
UACC-257 melanoma
  TGI: > 100 µM
CAKI-1 renal
  TGI: > 100 µM
SNB-19 CNS
  TGI: 97.7 µM
K-562 leukemia
  TGI: > 100 µM
LOX IMVI melanoma
  TGI: > 100 µM
KM12 colon
  TGI: > 100 µM
HT29 colon
  TGI: > 100 µM
OVCAR-3 ovarian
  TGI: > 100 µM
NCI-H23 lung
  TGI: > 100 µM

## COc1cccc(-c2cc(=O)c3cc(C)cnc3[nH]2)c1
UACC-257 melanoma
  TGI: > 100 µM
CAKI-1 renal
  TGI: > 100 µM
SNB-19 CNS
  TGI: > 100 µM
K-562 leukemia
  TGI: > 100 µM
LOX IMVI melanoma
  TGI: > 100 µM
HT29 colon
  TGI: 0.191 µM
OVCAR-3 ovarian
  TGI: > 100 µM
NCI-H23 lung
  TGI: > 100 µM

## CCn1c2c(c3c(C(=O)OC)c(O)ccc31)C(=O)c1ccccc1C2=O
UACC-257 melanoma
  TGI: > 100 µM
CAKI-1 renal
  TGI: 94.6 µM
SNB-19 CNS
  TGI: > 100 µM
K-562 leukemia
  TGI: > 100 µM
LOX IMVI melanoma
  TGI: 71.6 µM
RXF 393 renal
  TGI: 52.6 µM
KM12 colon
  TGI: 34.6 µM
HT29 colon
  TGI: 36.5 µM
OVCAR-3 ovarian
  TGI: 63.1 µM
NCI-H23 lung
  TGI: 48.7 µM

## COC1C(O)=C2C(=O)OC(C)(O)/C=C/C=C\C=C/C=C/C(c3ccccc3)NC(=O)/C=C/C=C/C=C/C=C/C2(C)C1O (stereo not drawn)
UACC-257 melanoma
  GI50: 0.0838 µM
  TGI: 0.17 µM and 0.31 µM
CAKI-1 renal
  TGI: 0.125 µM and 0.0222 µM
SNB-19 CNS
  GI50: 0.0133 µM
  TGI: 0.239 µM and 0.112 µM
K-562 leukemia
  TGI: > 100 µM
LOX IMVI melanoma
  GI50: 0.0264 µM
  TGI: 0.16 µM and 0.234 µM
RXF 393 renal
  TGI: 0.0425 µM
KM12 colon
  TGI: 0.117 µM and 0.148 µM
HT29 colon
  TGI: 0.0161 µM and 0.0687 µM
OVCAR-3 ovarian
  GI50: 0.114 µM
  TGI: 0.218 µM and 0.349 µM
NCI-H23 lung
  TGI: 0.119 µM and 0.129 µM

## O=C(CSc1nc2ccc(I)cc2c(=O)n1Cc1ccccc1)Nc1ccc(Br)cc1
CAKI-1 renal
  TGI: 20.2 µM
SNB-19 CNS
  TGI: > 100 µM
K-562 leukemia
  TGI: > 100 µM
LOX IMVI melanoma
  TGI: > 100 µM
RXF 393 renal
  TGI: > 100 µM
KM12 colon
  TGI: > 100 µM
HT29 colon
  TGI: > 100 µM
OVCAR-3 ovarian
  TGI: > 100 µM
NCI-H23 lung
  TGI: > 100 µM

## CCCCCCCCOCC1S(=O)(=O)OCCOS1(=O)=O
UACC-257 melanoma
  TGI: > 100 µM
CAKI-1 renal
  TGI: > 100 µM
SNB-19 CNS
  TGI: > 100 µM
K-562 leukemia
  TGI: > 100 µM
LOX IMVI melanoma
  TGI: > 100 µM
RXF 393 renal
  TGI: > 100 µM
HT29 colon
  TGI: > 100 µM
OVCAR-3 ovarian
  TGI: > 100 µM
NCI-H23 lung
  TGI: > 100 µM

## CC[C@H]1C=CCC[C@@]2(C[C@@H]3CC[C@@H]4[C@H](C(=O)OCCCCCCCCCCCCCCCC(=O)N(CCCN)C[C@@H](O)CCN)[C@]5(CCC[C@@H](C)O5)NC(=[N+]34)N2)O1
UACC-257 melanoma
  TGI: 0.573 µM
SNB-19 CNS
  TGI: 1.27 µM
K-562 leukemia
  TGI: 0.565 µM
LOX IMVI melanoma
  TGI: 0.721 µM
RXF 393 renal
  TGI: 2.38 µM
KM12 colon
  TGI: 1.58 µM
HT29 colon
  TGI: 1.23 µM
OVCAR-3 ovarian
  TGI: > 10 µM
NCI-H23 lung
  TGI: 2.87 µM

## CCCCCc1c(CCCC)c(=O)[nH]c2cc(CNCC(OC)OC)ccc12
UACC-257 melanoma
  TGI: 16.2 µM
CAKI-1 renal
  TGI: 24.6 µM
SNB-19 CNS
  TGI: 26.2 µM
K-562 leukemia
  TGI: 5.63 µM
LOX IMVI melanoma
  TGI: 18.8 µM
RXF 393 renal
  TGI: 27.1 µM
KM12 colon
  TGI: 26.4 µM
HT29 colon
  TGI: 12.4 µM
OVCAR-3 ovarian
  TGI: 32.3 µM
NCI-H23 lung
  TGI: 32.8 µM

## Cc1nn(-c2ccccc2)c(C)c1/C=N/NC(=O)c1sc(=S)n(-c2ccccc2)c1N
UACC-257 melanoma
  TGI: > 100 µM
CAKI-1 renal
  TGI: 7.53 µM
SNB-19 CNS
  TGI: > 100 µM
K-562 leukemia
  TGI: > 100 µM
LOX IMVI melanoma
  TGI: 5.12 µM
RXF 393 renal
  TGI: 4.36 µM
KM12 colon
  TGI: > 100 µM
HT29 colon
  TGI: 19.7 µM
OVCAR-3 ovarian
  TGI: > 100 µM
NCI-H23 lung
  TGI: > 100 µM

## CN(C)Cc1cc(C(=O)O)cc(CN(C)C)c1O
UACC-257 melanoma
  TGI: > 100 µM
CAKI-1 renal
  TGI: > 100 µM
SNB-19 CNS
  TGI: > 100 µM
K-562 leukemia
  TGI: > 100 µM
LOX IMVI melanoma
  TGI: > 100 µM
RXF 393 renal
  TGI: > 100 µM
KM12 colon
  TGI: > 100 µM
HT29 colon
  TGI: > 100 µM
OVCAR-3 ovarian
  TGI: > 100 µM
NCI-H23 lung
  TGI: > 100 µM

## CC(C)n1c(=O)c2nn3c(=O)n(C(C)C)c(=O)c3nn2c1=O
UACC-257 melanoma
  TGI: > 100 µM
CAKI-1 renal
  TGI: > 100 µM
SNB-19 CNS
  TGI: > 100 µM
LOX IMVI melanoma
  TGI: > 100 µM
RXF 393 renal
  TGI: > 100 µM
KM12 colon
  TGI: > 100 µM
HT29 colon
  TGI: > 100 µM
OVCAR-3 ovarian
  TGI: > 100 µM
NCI-H23 lung
  TGI: > 100 µM

## O=[N+]([O-])C(=C(NCc1ccccc1)NCc1ccccc1)C(Cl)=C(Cl)Cl
UACC-257 melanoma
  TGI: 82.4 µM
CAKI-1 renal
  TGI: 55.6 µM
SNB-19 CNS
  TGI: > 100 µM
K-562 leukemia
  TGI: 54.2 µM
LOX IMVI melanoma
  TGI: 37.8 µM
RXF 393 renal
  TGI: 98.4 µM
KM12 colon
  TGI: 47.7 µM
HT29 colon
  TGI: > 100 µM
OVCAR-3 ovarian
  TGI: 69.2 µM
NCI-H23 lung
  TGI: 96.9 µM

## COC(=O)c1c(O)ccc2c1c1c(n2C)C(=O)c2ccccc2C1=O
UACC-257 melanoma
  TGI: > 100 µM
CAKI-1 renal
  TGI: 92.5 µM
SNB-19 CNS
  TGI: 50.9 µM
K-562 leukemia
  TGI: > 100 µM
LOX IMVI melanoma
  TGI: > 100 µM
RXF 393 renal
  TGI: 42 µM
KM12 colon
  TGI: > 100 µM
HT29 colon
  TGI: > 100 µM
OVCAR-3 ovarian
  TGI: > 100 µM
NCI-H23 lung
  TGI: 78.2 µM

## Fc1cccc2nc(-c3ccccc3)cc(OCc3ccccc3)c12
UACC-257 melanoma
  TGI: > 100 µM
SNB-19 CNS
  TGI: > 100 µM
K-562 leukemia
  TGI: > 100 µM
LOX IMVI melanoma
  TGI: > 100 µM
RXF 393 renal
  TGI: > 100 µM
KM12 colon
  TGI: > 100 µM
HT29 colon
  TGI: > 100 µM
OVCAR-3 ovarian
  TGI: > 100 µM
NCI-H23 lung
  TGI: > 100 µM

## OC1CN=C2c3ccccc3C(O)(c3ccc(Cl)cc3)N2C1 (stereo not drawn)
CAKI-1 renal
  TGI: > 100 µM
SNB-19 CNS
  TGI: > 100 µM
K-562 leukemia
  TGI: > 100 µM
LOX IMVI melanoma
  TGI: > 100 µM
RXF 393 renal
  TGI: > 100 µM
KM12 colon
  TGI: > 100 µM
HT29 colon
  TGI: > 100 µM
OVCAR-3 ovarian
  TGI: > 100 µM
NCI-H23 lung
  TGI: > 100 µM

## NCCCCCCNc1cc(-c2cccc(OC(F)(F)F)c2)nc2ccc(N3CCCC3)cc12
CAKI-1 renal
  GI50: 1.72 µM
  TGI: 3.1 µM
RXF 393 renal
  GI50: 1.22 µM
  TGI: 2.52 µM
KM12 colon
  GI50: 1.79 µM
  TGI: 3.38 µM
HT29 colon
  GI50: 1.62 µM
  TGI: 3.06 µM
OVCAR-3 ovarian
  GI50: 1.68 µM
  TGI: 3.14 µM

## CC(=O)O[C@H]1/C(=C/c2ccc(N(C)C)cc2)C[C@H]2[C@@H]3CC=C4C[C@@H](N5CCCC5)CC[C@]4(C)[C@H]3CC[C@]12C
UACC-257 melanoma
  TGI: > 100 µM
SNB-19 CNS
  TGI: > 100 µM
K-562 leukemia
  TGI: > 100 µM
LOX IMVI melanoma
  TGI: > 100 µM
RXF 393 renal
  TGI: > 100 µM
HT29 colon
  TGI: > 100 µM
OVCAR-3 ovarian
  TGI: > 100 µM
NCI-H23 lung
  TGI: > 100 µM

## CCCCNC(=S)Nc1nc(C(=O)NNS(=O)(=O)c2ccccc2)cs1
UACC-257 melanoma
  TGI: 53.7 µM
CAKI-1 renal
  TGI: 69.5 µM
K-562 leukemia
  TGI: > 100 µM
LOX IMVI melanoma
  TGI: 39.2 µM
KM12 colon
  TGI: > 100 µM
OVCAR-3 ovarian
  TGI: 54.2 µM
NCI-H23 lung
  TGI: > 100 µM

Reference: PubChem BioAssay (NCI)
